# Data: publication PMC5391474, “Investigation of the Role of Protein Kinase D in Human Rhinovirus Replication” (Journal of Virology, 2017)
# Legend:
# [1] = biological target: T1, PKD (PKD1) (Homo sapiens, UniProt Q15139); assay: in vitro kinase assay with purified recombinant kinase; also pS916 inhibition in PANC1 and HeLa cells; type: biochemical
# T1 construct: gene PRKD1
# [2] = biological target: HIPK3(h) (Homo sapiens, UniProt Q9H422); assay: biochemical; set-up: in vitro kinase selectivity panel, protein and lipid kinases, single concentration, ATP at Km; conditions: ATP at Km
# Chain of HIPK3(h) (Q9H422 whole entry): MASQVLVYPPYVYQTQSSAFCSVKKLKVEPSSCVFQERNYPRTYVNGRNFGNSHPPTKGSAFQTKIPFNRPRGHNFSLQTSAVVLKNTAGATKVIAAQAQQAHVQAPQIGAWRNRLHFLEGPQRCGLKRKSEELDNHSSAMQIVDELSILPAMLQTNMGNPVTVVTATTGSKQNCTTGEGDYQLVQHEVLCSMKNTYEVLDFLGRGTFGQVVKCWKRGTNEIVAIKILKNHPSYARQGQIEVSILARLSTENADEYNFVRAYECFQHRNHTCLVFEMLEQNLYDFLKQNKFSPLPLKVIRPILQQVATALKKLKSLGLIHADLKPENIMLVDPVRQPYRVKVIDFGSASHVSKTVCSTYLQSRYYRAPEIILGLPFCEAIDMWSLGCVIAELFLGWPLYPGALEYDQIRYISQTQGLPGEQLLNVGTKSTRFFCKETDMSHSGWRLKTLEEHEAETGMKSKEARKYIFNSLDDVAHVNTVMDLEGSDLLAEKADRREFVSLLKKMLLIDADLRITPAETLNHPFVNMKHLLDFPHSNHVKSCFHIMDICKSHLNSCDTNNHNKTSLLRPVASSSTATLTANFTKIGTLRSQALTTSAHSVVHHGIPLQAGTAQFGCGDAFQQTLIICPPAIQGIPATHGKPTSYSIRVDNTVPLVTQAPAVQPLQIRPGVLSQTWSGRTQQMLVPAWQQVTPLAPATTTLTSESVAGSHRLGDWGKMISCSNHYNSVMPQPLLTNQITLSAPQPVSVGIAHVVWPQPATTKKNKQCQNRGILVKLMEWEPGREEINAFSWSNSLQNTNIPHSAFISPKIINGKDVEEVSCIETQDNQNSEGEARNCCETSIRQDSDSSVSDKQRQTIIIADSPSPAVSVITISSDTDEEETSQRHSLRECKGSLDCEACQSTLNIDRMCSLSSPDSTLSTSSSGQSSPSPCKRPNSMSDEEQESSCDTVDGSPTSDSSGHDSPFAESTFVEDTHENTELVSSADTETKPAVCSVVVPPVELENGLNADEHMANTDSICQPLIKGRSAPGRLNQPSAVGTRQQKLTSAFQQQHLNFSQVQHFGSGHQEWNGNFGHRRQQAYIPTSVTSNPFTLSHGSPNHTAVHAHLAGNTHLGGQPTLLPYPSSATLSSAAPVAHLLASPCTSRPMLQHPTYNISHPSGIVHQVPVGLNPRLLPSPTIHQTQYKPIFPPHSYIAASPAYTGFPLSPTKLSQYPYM
# Method in brief: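 Single-point screen against a protein and lipid kinase panel: inhibitor at 1 μM. ATP concentration for every kinase equivalent to its Km.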
# T1 sequence (Q15139 whole entry): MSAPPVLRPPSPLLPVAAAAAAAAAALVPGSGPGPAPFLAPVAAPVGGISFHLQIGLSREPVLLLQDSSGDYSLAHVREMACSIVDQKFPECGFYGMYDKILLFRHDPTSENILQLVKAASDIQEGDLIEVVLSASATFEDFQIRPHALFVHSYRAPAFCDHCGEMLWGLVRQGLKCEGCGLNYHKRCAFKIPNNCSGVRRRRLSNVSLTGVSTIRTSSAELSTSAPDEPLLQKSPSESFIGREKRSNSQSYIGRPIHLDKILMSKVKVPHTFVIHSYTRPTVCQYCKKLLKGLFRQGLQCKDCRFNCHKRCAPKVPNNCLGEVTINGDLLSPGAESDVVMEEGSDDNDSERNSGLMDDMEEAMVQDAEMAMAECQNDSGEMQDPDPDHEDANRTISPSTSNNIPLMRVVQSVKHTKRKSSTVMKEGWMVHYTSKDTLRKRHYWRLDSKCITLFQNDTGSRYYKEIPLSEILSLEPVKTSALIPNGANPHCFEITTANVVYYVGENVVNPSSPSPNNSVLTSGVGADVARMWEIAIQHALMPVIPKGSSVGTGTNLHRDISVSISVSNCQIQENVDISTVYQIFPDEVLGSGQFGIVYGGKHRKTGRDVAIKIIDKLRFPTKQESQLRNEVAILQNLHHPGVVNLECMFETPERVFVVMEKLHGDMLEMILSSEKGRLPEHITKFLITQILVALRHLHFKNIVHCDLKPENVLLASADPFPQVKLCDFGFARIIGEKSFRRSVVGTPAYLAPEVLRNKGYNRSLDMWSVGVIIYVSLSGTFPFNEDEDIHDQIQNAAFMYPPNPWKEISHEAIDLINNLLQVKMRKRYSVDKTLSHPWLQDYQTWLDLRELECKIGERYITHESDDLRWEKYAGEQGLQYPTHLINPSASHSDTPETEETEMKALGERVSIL
smiles,measurement,setting,value
CC[C@@H](N)CNc1ccnc(-c2cc(-c3cnn(C)c3)ccc2O)n1 [CRT0066101],IC50,[1],1 nM
same,inhibition at 1 µM,[2],14%
